BindingDB's records for patent US20240148821 (Chugai Seiyaku Kabushiki Kaisha, 2024)
Numbered stars: 1 amine (or outer) side, 2 acyl side, 3 side chain; on linkers, the order of the positions; unused ones are H or OH. Bridge positions count the residues as written; N and C are the ends. Square brackets hold non-standard residues; d marks the D form. Peptide text beside a SMILES is read from it. * marks the point of attachment. ξ: configuration not given here. hPhe(3,5-F2-4-CF3) = N[C@@H](CCc1cc(F)c(C(F)(F)F)c(F)c1)C(=O)O; hPhe(3-F,4-CF3) = N[C@@H](CCc1ccc(C(F)(F)F)c(F)c1)C(=O)O; NMeGly(COCH2cHex) = CN[C@H](C(=O)O)C(=O)CC1CCCCC1; X54 = COc1cc(CC[C@H](N[*:1])C(=O)[*:2])cc(Cl)c1Cl; X96 = O=C([C@H](CCc1ccc(C(F)(F)F)nc1)N[*:1])[*:2]; X85 = O=C([C@H](CCc1ccc2ncccc2c1)N[*:1])[*:2]; NMeGly(cPent) = CN[C@H](C(=O)O)C1CCCC1; oXylylene = c1ccc(C[*:2])c(C[*:1])c1; NMeCha = CN[C@@H](CC1CCCCC1)C(=O)O; cisHyp = O=C(O)[C@@H]1C[C@H](O)CN1; ξPro(4,4-F2) = O=C(O)C1CC(F)(F)CN1; Hyp = O=C(O)[C@@H]1C[C@@H](O)CN1; NMeChg = CN[C@H](C(=O)O)C1CCCCC1; NMeD = CN[C@@H](CC(=O)O)C(=O)O; Benzyl(4-Cl) = Clc1ccc(C*)cc1; NMeL = CN[C@@H](CC(C)C)C(=O)O; NMeA = CN[C@@H](C)C(=O)O; Piperidide = C1CCN(*)CC1; Pyrrolidide = C1CCN(*)C1; Ac5c = NC1(C(=O)O)CCCC1; Aze = O=C(O)[C@@H]1CCN1; Ac4c = NC1(C(=O)O)CCC1; X106 = Clc1cccc(C*)c1; Meb = Cc1ccc(C*)cc1; ξP = O=C(O)C1CCCN1; Sar = CNCC(=O)O

Target: GTPase KRas (G12D) and Son of Sevenless Homolog 1 (SOS) (Homo sapiens, UniProt P01116, G12D)
Sequence (P01116 whole entry G12D): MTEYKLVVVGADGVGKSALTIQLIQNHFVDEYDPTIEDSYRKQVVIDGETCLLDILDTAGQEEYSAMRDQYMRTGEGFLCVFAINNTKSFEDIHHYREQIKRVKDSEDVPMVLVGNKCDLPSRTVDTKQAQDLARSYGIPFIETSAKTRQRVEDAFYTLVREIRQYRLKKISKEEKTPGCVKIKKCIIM
Sequence (Q07889 whole entry, further chain): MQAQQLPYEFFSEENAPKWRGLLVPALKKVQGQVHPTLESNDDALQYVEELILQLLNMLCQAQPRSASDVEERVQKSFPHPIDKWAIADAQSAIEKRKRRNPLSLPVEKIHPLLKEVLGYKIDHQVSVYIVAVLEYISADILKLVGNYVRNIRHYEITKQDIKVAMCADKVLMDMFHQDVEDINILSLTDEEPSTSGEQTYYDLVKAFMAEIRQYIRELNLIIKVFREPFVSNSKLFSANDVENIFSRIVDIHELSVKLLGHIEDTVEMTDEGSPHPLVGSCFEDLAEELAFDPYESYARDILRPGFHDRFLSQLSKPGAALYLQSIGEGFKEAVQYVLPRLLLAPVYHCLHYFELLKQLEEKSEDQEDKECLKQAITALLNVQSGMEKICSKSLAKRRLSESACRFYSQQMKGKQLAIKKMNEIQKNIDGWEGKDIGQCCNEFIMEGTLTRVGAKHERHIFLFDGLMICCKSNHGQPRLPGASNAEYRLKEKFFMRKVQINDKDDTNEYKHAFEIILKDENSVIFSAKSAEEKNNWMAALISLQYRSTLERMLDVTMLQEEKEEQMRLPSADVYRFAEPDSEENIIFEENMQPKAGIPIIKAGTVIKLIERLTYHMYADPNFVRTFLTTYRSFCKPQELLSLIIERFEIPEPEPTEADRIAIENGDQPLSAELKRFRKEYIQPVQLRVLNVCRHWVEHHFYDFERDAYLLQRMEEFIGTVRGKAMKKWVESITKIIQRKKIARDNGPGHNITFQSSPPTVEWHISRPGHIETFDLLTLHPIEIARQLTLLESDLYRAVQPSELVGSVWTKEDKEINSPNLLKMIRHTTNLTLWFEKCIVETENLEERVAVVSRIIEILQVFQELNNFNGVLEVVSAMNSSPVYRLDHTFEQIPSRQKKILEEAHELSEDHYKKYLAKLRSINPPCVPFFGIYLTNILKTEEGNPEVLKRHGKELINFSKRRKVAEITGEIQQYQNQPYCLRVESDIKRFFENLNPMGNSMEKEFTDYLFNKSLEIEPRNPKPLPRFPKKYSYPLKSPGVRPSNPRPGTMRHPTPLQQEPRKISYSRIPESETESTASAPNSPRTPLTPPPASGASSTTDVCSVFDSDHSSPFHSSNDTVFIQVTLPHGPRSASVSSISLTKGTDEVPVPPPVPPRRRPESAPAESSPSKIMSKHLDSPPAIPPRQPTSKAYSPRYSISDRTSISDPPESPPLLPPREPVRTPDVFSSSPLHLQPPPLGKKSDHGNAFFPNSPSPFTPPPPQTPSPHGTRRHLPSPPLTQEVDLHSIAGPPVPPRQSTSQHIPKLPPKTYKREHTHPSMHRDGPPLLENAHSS
Assay: AlphaScreen Assay

Structure (SMILES) | IC50 [nM]
CC[C@H](C)[C@@H]1NC(=O)[C@H](CC(C)C)N(C)C(=O)C[C@@H](C(=O)N2CCCCC2)N(C)C(=O)[C@H](CC(C)C)N(C)C(=O)C2(CCCC2)NC(=O)[C@@H]2C[C@H](OCc3ccccc3C)CN2C(=O)[C@H](CCc2ccc(C(F)(F)F)c(F)c2)NC(=O)CN(C)C(=O)[C@H](CC2CCCCC2)N(C)C(=O)CN(C)C(=O)CN(C)C1=O [US20240148821, Compound 2137] ([NMeL]I[Sar][Sar][NMeCha][Sar][hPhe(3-F,4-CF3)][cisHyp](oXylylene)[Ac5c][NMeL][NMeD]-Piperidide; lactam N-11) | 69
CC[C@H](C)[C@@H]1NC(=O)[C@H](CC(C)C)N(C)C(=O)C[C@@H](C(=O)N2CCCCC2)N(C)C(=O)[C@H](CC(C)C)N(C)C(=O)C2(CCCC2)NC(=O)[C@@H]2C[C@@H](OCc3cccc(Cl)c3)CN2C(=O)[C@H](CCc2ccc(C(F)(F)F)c(F)c2)NC(=O)CN(C)C(=O)[C@H](CC2CCCCC2)N(C)C(=O)CN(C)C(=O)CN(C)C1=O [US20240148821, Compound 2134] ([NMeL]I[Sar][Sar][NMeCha][Sar][hPhe(3-F,4-CF3)][Hyp](X106)[Ac5c][NMeL][NMeD]-Piperidide; lactam N-11) | 9.8
CC[C@H](C)[C@@H]1NC(=O)[C@H](CC(C)C)N(C)C(=O)C[C@@H](C(=O)N2CCCCC2)N(C)C(=O)[C@H](CC(C)C)N(C)C(=O)C2(CCCC2)NC(=O)[C@@H]2C[C@H](OCc3ccc(Cl)cc3)CN2C(=O)[C@H](CCc2ccc(C(F)(F)F)c(F)c2)NC(=O)CN(C)C(=O)[C@H](CC2CCCCC2)N(C)C(=O)CN(C)C(=O)CN(C)C1=O [US20240148821, Compound 2129] ([NMeL]I[Sar][Sar][NMeCha][Sar][hPhe(3-F,4-CF3)][cisHyp](Benzyl(4-Cl))[Ac5c][NMeL][NMeD]-Piperidide; lactam N-11) | 46
CCCC[C@@H]1NC(=O)[C@H](Cc2cccc(I)c2)NC(=O)CN(CC)C(=O)[C@H](Cc2ccc(Cl)cc2)N(CC)C(=O)CN(CC)C(=O)CN(CC)C(=O)[C@H]([C@@H](C)CC)NC(=O)[C@H](CC(C)C)N(CC)C(=O)CC(C(=O)N2CCCCC2)N(CC)C(=O)[C@H](CC(C)C)NC(=O)[C@H](Cc2ccccc2OC(F)(F)F)N(CC)C1=O (stereo partly drawn) [US20240148821, Compound 111] | 100
CC[C@H](C)[C@@H]1NC(=O)[C@H](CC(C)C)N(C)C(=O)C[C@@H](C(=O)N2CCCCC2)N(C)C(=O)[C@H](CC(C)C)N(C)C(=O)C2(CCCC2)NC(=O)[C@@H]2C[C@H](OCc3ccc(C)cc3)CN2C(=O)[C@H](CCc2ccc(C(F)(F)F)c(F)c2)NC(=O)CN(C)C(=O)[C@H](CC2CCCCC2)N(C)C(=O)CN(C)C(=O)CN(C)C1=O [US20240148821, Compound 2140] ([NMeL]I[Sar][Sar][NMeCha][Sar][hPhe(3-F,4-CF3)][cisHyp](Meb)[Ac5c][NMeL][NMeD]-Piperidide; lactam N-11) | 32
CC[C@H](C)[C@@H]1NC(=O)[C@H](CCC2CCC2)N(C)C(=O)C[C@@H](C)NC(=O)[C@H](C(C)C)N(C)C(=O)C2(CCCC2)NC(=O)C2CCCN2C(=O)[C@H](CCc2ccc(C(F)(F)F)c(Cl)c2)NC(=O)CN(C)C(=O)[C@H](CC2CCCCC2)N(C)C(=O)CN(C)C(=O)CN(C)C1=O (stereo partly drawn) [US20240148821, Compound 230] | 39
CC[C@H](C)[C@@H]1NC(=O)[C@H](CC(C)C)N(C)C(=O)C[C@@H](C(=O)N2CCCCC2)N(C)C(=O)[C@H](C2CCCC2)N(C)C(=O)C2(CCCC2)NC(=O)[C@@H]2CCCN2C(=O)[C@H](CCc2ccc3ncccc3c2)NC(=O)CN(C)C(=O)[C@H](CC2CCCCC2)N(C)C(=O)[C@@H]2CCN2C(=O)[C@H](C)N(C)C1=O [US20240148821, Compound 2070] ([NMeL]I[NMeA][Aze][NMeCha][Sar][X85]P[Ac5c][NMeGly(cPent)][NMeD]-Piperidide; lactam N-11) | 18
CC[C@H](C)[C@@H]1NC(=O)[C@H](CC(C)C)N(C)C(=O)C[C@@H](C(=O)N2CCCCC2)N(C)C(=O)[C@H](CC(C)C)N(C)C(=O)C2(CCCC2)NC(=O)[C@@H]2C[C@H](OCc3cccc(Cl)c3)CN2C(=O)[C@H](CCc2ccc(C(F)(F)F)c(F)c2)NC(=O)CN(C)C(=O)[C@H](CC2CCCCC2)N(C)C(=O)CN(C)C(=O)CN(C)C1=O [US20240148821, Compound 2126] ([NMeL]I[Sar][Sar][NMeCha][Sar][hPhe(3-F,4-CF3)][cisHyp](X106)[Ac5c][NMeL][NMeD]-Piperidide; lactam N-11) | 37

More lines, now with the values ahead:

IC50 [nM] | Structure (SMILES)
2.2 | CC[C@H](C)[C@@H]1NC(=O)[C@H](CC(C)C)N(C)C(=O)C[C@@H](C(=O)N2CCCCC2)N(C)C(=O)[C@H](CC(C)C)N(C)C(=O)C2(CCCC2)NC(=O)[C@@H]2C[C@H](O)CN2C(=O)[C@H](CCc2ccc(C(F)(F)F)c(F)c2)NC(=O)CN(C)C(=O)[C@H](CC2CCCCC2)N(C)C(=O)CN(C)C(=O)CN(C)C1=O [US20240148821, Compound 544] ([NMeL]I[Sar][Sar][NMeCha][Sar][hPhe(3-F,4-CF3)][cisHyp][Ac5c][NMeL][NMeD]-Piperidide; lactam N-11)
11 | CC[C@H](C)[C@@H]1NC(=O)[C@H](CC(C)C)N(C)C(=O)C[C@@H](C(=O)N2CCCCC2)N(C)C(=O)[C@H](C2CCCC2)N(C)C(=O)C2(CCCC2)NC(=O)[C@@H]2CCCN2C(=O)[C@H](CCc2ccc(C(F)(F)F)nc2)NC(=O)CN(C)C(=O)[C@H](CC2CCCCC2)N(C)C(=O)[C@@H]2CCN2C(=O)[C@H](C)N(C)C1=O [US20240148821, Compound 2078] ([NMeL]I[NMeA][Aze][NMeCha][Sar][X96]P[Ac5c][NMeGly(cPent)][NMeD]-Piperidide; lactam N-11)
12 | CC[C@H](C)[C@@H]1NC(=O)[C@H](CC(C)C)N(C)C(=O)C[C@@H](C(=O)N2CCCCC2)N(C)C(=O)[C@H](CC(C)C)N(C)C(=O)C2(CCCC2)NC(=O)[C@@H]2C[C@@H](OCc3ccc(Cl)cc3)CN2C(=O)[C@H](CCc2ccc(C(F)(F)F)c(F)c2)NC(=O)CN(C)C(=O)[C@H](CC2CCCCC2)N(C)C(=O)CN(C)C(=O)CN(C)C1=O [US20240148821, Compound 2133] ([NMeL]I[Sar][Sar][NMeCha][Sar][hPhe(3-F,4-CF3)][Hyp](Benzyl(4-Cl))[Ac5c][NMeL][NMeD]-Piperidide; lactam N-11)
2 | CC[C@H](C)[C@@H]1NC(=O)[C@H](C)N(C)C(=O)C[C@@H](C(=O)N2CCCCC2)N(C)C(=O)[C@H](C2CCCCC2)N(C)C(=O)C2(CCCC2)NC(=O)C2CCCN2C(=O)[C@H](CCc2cc(Cl)c(Cl)c(OC)c2)NC(=O)CN(C)C(=O)[C@H](C(=O)CC2CCCCC2)N(C)C(=O)CN(C)C(=O)CN(C)C1=O (stereo partly drawn) [US20240148821, Compound 2081] ([NMeA]I[Sar][Sar][NMeGly(COCH2cHex)][Sar][X54][ξP][Ac5c][NMeChg][NMeD]-Piperidide; lactam N-11)
0.39 | CC[C@H](C)[C@@H]1NC(=O)[C@H](CC(C)C)N(C)C(=O)C[C@@H](C(=O)N2CCCC2)N(C)C(=O)[C@H](C2CCCCC2)N(C)C(=O)C2(CCC2)NC(=O)C2CC(F)(F)CN2C(=O)[C@H](CCc2cc(F)c(C(F)(F)F)c(F)c2)NC(=O)CN(C)C(=O)[C@H](C(=O)CC2CCCCC2)N(C)C(=O)CN(C)C(=O)CN(C)C1=O (stereo partly drawn) [US20240148821, Compound 1192] ([NMeL]I[Sar][Sar][NMeGly(COCH2cHex)][Sar][hPhe(3,5-F2-4-CF3)][ξPro(4,4-F2)][Ac4c][NMeChg][NMeD]-Pyrrolidide; lactam N-11)
